Source: ChEMBL document CHEMBL6134827, “The discovery of novel antimicrobial peptides against drug-resistant bacteria based on fragments fusion strategy” (Eur J Med Chem, 2025)
Calls of active or inactive are those of the source. The calls are words filed in the database; no cut-off is given here. Positions of bridges follow the written chain, without caps; N, C: chain ends. Non-standard residues stand in square brackets, D forms with d. Residues, ends and D or L forms follow the SMILES beside them. *: point of attachment. X1 = CC[C@H](C)CCCCC(=O)*; Dab = NCC[C@H](N)C(=O)O

Columns and labels:
Staphylococcus aureus [1] = assay: Antimicrobial activity against Staphylococcus aureus ATCC 29213 assessed as inhibition of visible microbial growth incubated for 18 hrs by broth microdilution method; type: functional
Staphylococcus aureus [2] = assay: Antimicrobial activity against multidrug resistant Staphylococcus aureus assessed as inhibition of visible microbial growth incubated for 18 hrs by broth microdilution method; type: functional
Staphylococcus aureus [3] = assay: Drug resistance, ratio of MIC for Staphylococcus aureus ATCC 29213 after 4 passages to MIC for Staphylococcus aureus ATCC 29213 after first exposure; type: functional
Staphylococcus aureus [4] = assay: Drug resistance, ratio of MIC for multidrug resistant Staphylococcus aureus after 10 passages to MIC for multidrug resistant Staphylococcus aureus after first exposure; type: functional
Staphylococcus aureus [5] = assay: Drug resistance, ratio of MIC for Staphylococcus aureus ATCC 29213 after 14 passages to MIC for Staphylococcus aureus ATCC 29213 after first exposure; type: functional
Staphylococcus aureus [6] = assay: Drug resistance, ratio of MIC for multidrug resistant Staphylococcus aureus after 4 passages to MIC for multidrug resistant Staphylococcus aureus after first exposure; type: functional
Pseudomonas aeruginosa [7] = assay: Drug resistance, ratio of MIC for multidrug resistant Pseudomonas aeruginosa after 5 passages to MIC for multidrug resistant Pseudomonas aeruginosa after first exposure; type: functional
[8] = Nephrotoxicity in female C57BL/6 mouse assessed as increase in BUN level at 15 mg/kg, ip administered daily and measured for 5 days; type: toxicity, organism-based; conditions: in vivo, 120 h, time 5 day
[9] = Toxicity in female C57BL/6 mouse assessed as histopathological change in kidney at 20 mg/kg, ip administered daily and measured for 5 days by H and E staining based analysis; type: organism-based; conditions: in vivo, 120 h, time 5 day
[10] = Nephrotoxicity in female C57BL/6 mouse assessed as tubular dilation at 20 mg/kg, ip administered daily and measured for 5 days by H and E staining based analysis; type: toxicity, organism-based; conditions: in vivo, 120 h, time 5 day
[11] = Nephrotoxicity in female C57BL/6 mouse assessed as presence of flocculents in lumen at 20 mg/kg, ip administered daily and measured for 5 days by H and E staining based analysis; type: toxicity, organism-based; conditions: in vivo, 120 h, time 5 day
Acinetobacter baumannii = assay: Antimicrobial activity against multidrug resistant Acinetobacter baumannii assessed as inhibition of visible microbial growth incubated for 18 hrs by broth microdilution method; type: functional
Pseudomonas aeruginosa [12] = assay: Antimicrobial activity against multidrug resistant Pseudomonas aeruginosa assessed as inhibition of visible microbial growth incubated for 18 hrs by broth microdilution method; type: functional
Escherichia coli [13] = assay: Antimicrobial activity against multidrug resistant Escherichia coli assessed as inhibition of visible microbial growth incubated for 18 hrs by broth microdilution method; type: functional
Escherichia coli [14] = assay: Antimicrobial activity against Escherichia coli ATCC 25922 assessed as inhibition of visible microbial growth incubated for 18 hrs by broth microdilution method; type: functional
[15] = Hemolytic activity in human red blood cell assessed as hemolysis at 128 microg/ml measured after 1 hrs by microplate reader assay relative to control; type: toxicity, cell-based, Erythrocyte; conditions: red blood cells, at 128 µg/mL, read-out: Activity
BEAS-2B = assay: Cytotoxicity against human BEAS-2B cells assessed as reduction in cell viability at 2 to 64 microg/mL measured after 24 hrs by CCK-8 assay; type: toxicity, cell-based; conditions: dose 2-64 µg/ml
L02 = assay: Cytotoxicity against human LO2 cells assessed as reduction in cell viability at 2 to 64 microg/mL measured after 24 hrs by CCK-8 assay; type: toxicity, cell-based; conditions: l02, 24 h, dose 2-64 µg/ml
[16] = Cytotoxicity against human BEAS-2B cells assessed as inhibition of cell growth measured after 24 hrs by CCK-8 assay; type: toxicity, cell-based
Bacillus subtilis = assay: Antibacterial activity against Bacillus subtilis; type: functional
Pseudomonas aeruginosa [17] = assay: Drug resistance, ratio of MIC for multidrug resistant Pseudomonas aeruginosa after 14 passages to MIC for multidrug resistant Pseudomonas aeruginosa after first exposure; type: functional
[18] = Stability in 25% human plasma assessed as compound remaining measured after 24 hrs by RP-HPLC analysis; type: ADME, cell-free; conditions: 25% plasma, read-out: Stability
Staphylococcus aureus [19] = assay: Antibacterial activity against multidrug resistant Staphylococcus aureus assessed as reduction in bacterial growth at 32 microg/mL measured after 1.5 hrs by bactericidal kinetic assay; type: functional, organism-based; conditions: dose 32.0 µg/ml
Pseudomonas aeruginosa [20] = assay: Antibacterial activity against multidrug resistant Pseudomonas aeruginosa assessed as reduction in bacterial growth at 32 microg/mL measured within 30 min by bactericidal kinetic assay relative to control; type: functional; set-up: scale not given: the % may be the effect or the level left; conditions: dose 32 µg/ml, 0.5 h
Cell membrane [21] = assay: Induction of outer cell membrane permeabilization in multidrug resistant Pseudomonas aeruginosa assessed as increase in fluorescence intensity measured for 12 mins by NPN uptake assay; type: subcellular; conditions: dose 4-32 µg/ml
Cell membrane [22] = assay: Induction of outer cell membrane permeabilization in multidrug resistant Pseudomonas aeruginosa assessed as increase in fluorescence intensity at >16 microg/ml measured for 12 mins by NPN uptake assay; type: subcellular; conditions: dose > 16.0 µg/ml
Cell membrane [23] = assay: Induction of cytoplasmic membrane depolarization in multidrug resistant Pseudomonas aeruginosa assessed as increase in fluorescence intensity measured for 12 min by DISC3-5 dye based fluorescence analysis; type: subcellular; conditions: dose 4-32 µg/ml
[24] = Cytotoxicity against human BEAS-2B cells assessed as survival rate at 64 microg/ml measured after 24 hrs by CCK-8 assay relative to control; type: toxicity, cell-based; conditions: at 64 µg/mL, read-out: Survival
[25] = Cytotoxicity against HEK293T cells assessed as survival rate at 64 microg/ml measured after 24 hrs by CCK-8 assay relative to control; type: toxicity, cell-based, HEK-293T; conditions: human, at 64 µg/mL, read-out: Survival
[26] = Cytotoxicity against human LO2 cells assessed as survival rate at 64 microg/ml measured after 24 hrs by CCK-8 assay relative to control; type: toxicity, cell-based, L02; conditions: at 64 µg/mL, read-out: Survival

Compound	MIC (Staphylococcus aureus [1]) [µM]	MIC (Staphylococcus aureus [2]) [µM]	MIC (Acinetobacter baumannii) [µM]	MIC (Pseudomonas aeruginosa [12])	MIC (Escherichia coli [13]) [µM]	MIC (Escherichia coli [14]) [µM]	hemolysis at 1 h, 128 µg/mL [15] [%]	CC50 at 24 h [16] [µg/mL]	further results
CN[C@H](CC(C)C)C(=O)N[C@H]1C(=O)N[C@@H](CC(N)=O)C(=O)N[C@H]2C(=O)N[C@H]3C(=O)N[C@H](C(=O)N[C@H](C(=O)O)c4cc(O)cc(O)c4-c4cc3ccc4O)[C@H](O)c3ccc(c(Cl)c3)Oc3cc2cc(c3O[C@@H]2O[C@H](CO)[C@@H](O)[C@H](O)[C@H]2O[C@H]2C[C@](C)(N)[C@H](O)[C@H](C)O2)Oc2ccc(cc2Cl)[C@H]1O [VANCOMYCIN]	0.7	0.7	–	–	–	–	–	–	Ratio (Staphylococcus aureus [3]): 4; Ratio (Staphylococcus aureus [4]): 2
C[C@H]1COc2c(N3CCN(C)CC3)c(F)cc3c(=O)c(C(=O)O)cn1c23 [LEVOFLOXACIN ANHYDROUS]	–	–	–	–	–	–	–	–	Ratio (Staphylococcus aureus [5]): 512; Ratio (Staphylococcus aureus [6]): 4; Ratio (Pseudomonas aeruginosa [7]): 16
CC(C)CCCCC(=O)N[C@@H](CCN)C(=O)N[C@H](C(=O)N[C@@H](CCN)C(=O)N[C@H]1CCNC(=O)[C@H]([C@@H](C)O)NC(=O)[C@H](CCN)NC(=O)[C@H](CCN)NC(=O)[C@H](CC(C)C)NC(=O)[C@@H](Cc2ccccc2)NC(=O)[C@H](CCN)NC1=O)[C@@H](C)O.CC[C@H](C)CCCCC(=O)N[C@@H](CCN)C(=O)N[C@H](C(=O)N[C@@H](CCN)C(=O)N[C@H]1CCNC(=O)[C@H]([C@@H](C)O)NC(=O)[C@H](CCN)NC(=O)[C@H](CCN)NC(=O)[C@H](CC(C)C)NC(=O)[C@@H](Cc2ccccc2)NC(=O)[C@H](CCN)NC1=O)[C@@H](C)O (X1-[Dab]T[Dab][Dab][Dab][dF]L[Dab][Dab]T; lactam 4-C) [listing 1 of 2 here]	–	–	–	–	–	–	–	–	Activity [8]: Toxic; Activity [9]: Non-toxic; Activity [10]: Toxic; Activity [11]: Toxic
H-GLRKWLRKFKKFW-OH	17.8	17.8	4.5	4.5 µM	4.5	8.9	< 10	38.4	Activity (BEAS-2B): Toxic; Activity (L02): Toxic
H-GLRKRLRKFFNKIKF-OH	32.8	65.7	16.4	16.4 µM	4.1	8.2	–	–	MIC (Bacillus subtilis): > 3 µM
CC(C)CCCCC(=O)N[C@@H](CCN)C(=O)N[C@H](C(=O)N[C@@H](CCN)C(=O)N[C@H]1CCNC(=O)[C@H]([C@@H](C)O)NC(=O)[C@H](CCN)NC(=O)[C@H](CCN)NC(=O)[C@H](CC(C)C)NC(=O)[C@@H](Cc2ccccc2)NC(=O)[C@H](CCN)NC1=O)[C@@H](C)O.CC[C@H](C)CCCCC(=O)N[C@@H](CCN)C(=O)N[C@H](C(=O)N[C@@H](CCN)C(=O)N[C@H]1CCNC(=O)[C@H]([C@@H](C)O)NC(=O)[C@H](CCN)NC(=O)[C@H](CCN)NC(=O)[C@H](CC(C)C)NC(=O)[C@@H](Cc2ccccc2)NC(=O)[C@H](CCN)NC1=O)[C@@H](C)O (X1-[Dab]T[Dab][Dab][Dab][dF]L[Dab][Dab]T; lactam 4-C) [listing 2 of 2 here]	–	–	0.8	2 µg/mL	0.8	0.4	–	–	Ratio (Pseudomonas aeruginosa [17]): 4
H-GIGKFLKKAKKFGKAFVKILKK-OH	12.9	12.9	1.6	3.2 µM	3.2	3.2	< 10	45.9	Activity (BEAS-2B): Toxic; Activity (L02): Toxic; remaining at 24 h [18]: 34%; Activity (Staphylococcus aureus [19]): Not active; Bacterial Regrowth Observed; Activity (Pseudomonas aeruginosa [20]): 100%; Ratio (Staphylococcus aureus [3]): 8; Ratio (Staphylococcus aureus [6]): 8; Ratio (Pseudomonas aeruginosa [17]): 4; Activity (Cell membrane [21]): Dose-dependent-effect; Activity (Cell membrane [22]): Active; Activity (Cell membrane [23]): Dose-dependent-effect
CC(C)C[C@H](NC(=O)CN)C(=O)N[C@@H](CCN)C(=O)N[C@@H](CCN)C(=O)N[C@@H](Cc1c[nH]c2ccccc12)C(=O)N[C@@H](CC(C)C)C(=O)N[C@@H](CCN)C(=O)N[C@@H](CCN)C(=O)N[C@@H](Cc1ccccc1)C(=O)N[C@@H](CCN)C(=O)N[C@@H](CCN)C(=O)N[C@@H](Cc1ccccc1)C(=O)N[C@@H](Cc1c[nH]c2ccccc12)C(=O)O (H-GL[Dab][Dab]WL[Dab][Dab]F[Dab][Dab]FW-OH)	5.1	5.1	5.1	10.2 µM	10.2	5.1	< 10	> 64	viability at 24 h, 64 µg/mL [24]: > 80%; viability at 24 h, 64 µg/mL [25]: > 80%; viability at 24 h, 64 µg/mL [26]: > 80%
